For test [1], the system named is Wnt activity (SW480 colon carcinoma cells stably expressing the Sp5-Luc reporter gene). Nature of the test: Sp5-Luc reporter gene screening assay for Wnt activity in SW480 cells. It is filed as cell-based. The following applies: Homo sapiens, 42 h incubation, luminescence. An outline of the steps: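 SW480 cells stably carrying an Sp5 promoter (eight TCF/LEF sites)-luciferase reporter were plated overnight in 10% FCS medium. BrightGlo luminescence was normalised to DMSO wells, and IC50 was obtained by four-parameter fit.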
In general terms: Reporter assays use an easily measured gene product as a stand-in for the process of interest.

Test [2] concerns primary human fibroblasts derived from IPF patients (LL29 cells). In words: Inhibition of fibrosis (αSMA) in TGF-β1 treated primary human fibroblasts from IPF patients. The conditions noted are these: Fibroblast, 96 h, TGF-β1 20 ng/mL, 4 days, % αSMA positive cells. The class given is cell-based. The gist of the method:
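IPF patient-derived LL29 lung fibroblasts in 1% FBS were treated with compound (11 points, 10 μM to 1.87 nM, 0.1% DMSO) and then 20 ng/mL TGF-β1 for 4 days at 37° C. Fraction of SYTOX-negative cells positive for αSMA was quantified by immunofluorescence imaging and normalized to TGF-β1 controls. EC50 came from non-linear regression over triplicate wells.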

Our source for the IC50 and EC50 values is patent US10280166B2, “2-(1H-indazol-3-yl)-3H-imidazo[4,5-B]pyridine and therapeutic uses thereof” (Samumed, LLC, priority 2014, dated 2019).

As usually defined, the IC50 is the point on the concentration scale where inhibition reaches its midpoint. For orientation: EC50 means the concentration needed to bring the measured effect to its halfway point. A lower EC50 goes with a more potent agent.

Structures are written as SMILES.

In test [1], `CN(C)Cc1cncc(-c2ccc3[nH]nc(-c4nc5c(-c6cccs6)ccnc5[nH]4)c3c2)c1` [Compound 325, N,N-Dimethyl-1-(5-(3-(7-(thiophen-2-yl)-3H-imidazo[4,5-b]pyridin-2-yl)-1H-indazol-5-yl)pyridin-3-yl)methanamine] displayed an IC50 of 932 nM. This molecule registered an EC50 in test [2] of 0.04 nM.
With `CC(C)Nc1cncc(-c2ccc3[nH]nc(-c4nc5c(-c6cccnc6)ccnc5[nH]4)c3c2)c1` [Compound 90, N-isopropyl-5-(3-(7-(pyridin-3-yl)-3H-imidazo[4,5-b]pyridin-2-yl)-1H-indazol-5-yl)pyridin-3-amine], inhibition in test [1] was half-maximal at 12 nM (IC50). A half-maximal effect in test [2] (EC50) was put at 0.078 nM.
With `c1ccc(CNCc2cncc(-c3ccc4[nH]nc(-c5nc6c(-c7cccnc7)ccnc6[nH]5)c4c3)c2)cc1` [Compound 101, N-Benzyl-1-(5-(3-(7-(pyridin-3-yl)-3H-imidazo[4,5-b]pyridin-2-yl)-1H-indazol-5-yl)pyridin-3-yl)methanamine], the IC50 in test [1] is greater than 10000 nM. This molecule registered an EC50 in test [2] of 0.235 nM.
In test [1], `CCNCc1cncc(-c2ccc3[nH]nc(-c4nc5c(-c6ccccn6)ccnc5[nH]4)c3c2)c1` [Compound 136, N-((5-(3-(7-(Pyridin-2-yl)-3H-imidazo[4,5-b]pyridin-2-yl)-1H-indazol-5-yl)pyridin-3-yl)methyl)ethanamine] had an IC50 of 1550 nM. The same molecule came in with an EC50 in test [2] of 1.77 nM.
For `O=C(Nc1cncc(-c2ccc3[nH]nc(-c4nc5c(-c6cccc(F)c6)ccnc5[nH]4)c3c2)c1)C1CC1` [Compound 19, N-(5-(3-(7-(3-Fluorophenyl)-3H-imidazo[4,5-b]pyridin-2-yl)-1H-indazol-5-yl)pyridin-3-yl)cyclopropanecarboxamide], 1 nM corresponded to half-maximal inhibition in test [1] (IC50). The EC50 in test [2] came to 0.043 nM.
Consider `O=C(Nc1cncc(-c2ccc3[nH]nc(-c4nc5c(-c6ccsc6)ccnc5[nH]4)c3c2)c1)C1CCCC1` [Compound 281, N-(5-(3-(7-(Thiophen-3-yl)-3H-imidazo[4,5-b]pyridin-2-yl)-1H-indazol-5-yl)pyridin-3-yl)cyclopentanecarboxamide], for which the IC50 in test [1] was 9.8 nM. Also, in test [2], the EC50 came to 0.359 nM.
The like results for `Fc1cccc(-c2ccnc3[nH]c(-c4n[nH]c5ccc(C6CCNCC6)cc45)nc23)c1` [Compound 1873, 7-(3-Fluorophenyl)-2-(5-(piperidin-4-yl)-1H-indazol-3-yl)-3H-imidazo[4,5-b]pyridine] were, in that order, 3270 nM and 0.037 nM.
As for `CN(C)c1cncc(-c2ccc3[nH]nc(-c4nc5c(-c6ccccc6F)ccnc5[nH]4)c3c2)c1` [Compound 59, 5-(3-(7-(2-Fluorophenyl)-3H-imidazo[4,5-b]pyridin-2-yl)-1H-indazol-5-yl)-N,N-dimethylpyridin-3-amine], the IC50 in test [1] was determined as 31.9 nM. The same molecule came in with an EC50 in test [2] of 0.009 nM.
With `CC(C)(C)C(=O)Nc1cncc(-c2ccc3[nH]nc(-c4nc5c(-c6ccc(F)cc6)ccnc5[nH]4)c3c2)c1` [Compound 34, N-(5-(3-(7-(4-Fluorophenyl)-3H-imidazo[4,5-b]pyridin-2-yl)-1H-indazol-5-yl)pyridin-3-yl)pivalamide], the concentration for half-maximal inhibition (IC50) in test [1] amounted to 19 nM. Besides, in test [2], the response was half-maximal at 0.334 nM (EC50).
`O=C(CC1CCCCC1)Nc1cncc(-c2ccc3[nH]nc(-c4nc5c(-c6cccc(F)c6)ccnc5[nH]4)c3c2)c1` [Compound 1887, 2-Cyclohexyl-N-(5-(3-(7-(3-fluorophenyl)-3H-imidazo[4,5-b]pyridin-2-yl)-1H-indazol-5-yl)pyridin-3-yl)acetamide] registered an IC50 in test [1] greater than 10000 nM. The response in test [2] was half-maximal at 9.99 nM (EC50).
Turning to `COc1cncc(-c2ccc3[nH]nc(-c4nc5c(-c6cccc(F)c6)ccnc5[nH]4)c3c2)c1` [Compound 1884, 7-(3-Fluorophenyl)-2-(5-(5-methoxypyridin-3-yl)-1H-indazol-3-yl)-3H-imidazo[4,5-b]pyridine], the IC50 in test [1] was greater than 10000 nM. In test [2], this molecule showed an EC50 of 9.99 nM.
For the molecule `Cc1ccc(-c2ccnc3[nH]c(-c4n[nH]c5ccc(-c6cncc(NC(=O)C7CCCC7)c6)cc45)nc23)s1` [Compound 385, N-(5-(3-(7-(5-Methylthiophen-2-yl)-3H-imidazo[4,5-b]pyridin-2-yl)-1H-indazol-5-yl)pyridin-3-yl)cyclopentanecarboxamide], in test [1], the IC50 came out at 19.2 nM. Also, the midpoint of the response in test [2], the EC50, lay at 0.084 nM.
The molecule `Fc1cccc(-c2ccnc3[nH]c(-c4n[nH]c5ccc(-c6cncc(OC7CCCCC7)c6)cc45)nc23)c1` [Compound 1879, 2-(5-(5-(Cyclohexyloxy)pyridin-3-yl)-1H-indazol-3-yl)-7-(3-fluorophenyl)-3H-imidazo[4,5-b]pyridine] gave an IC50 in test [1] greater than 10000 nM. Besides, a half-maximal response in test [2] (EC50) required 9.99 nM.
The like results for `CCNCc1cncc(-c2ccc3[nH]nc(-c4nc5c(-c6cc(F)cc(NCCN(C)C)c6)ccnc5[nH]4)c3c2)c1` [Compound 448, N^1-(3-(2-(5-(5-((Ethylamino)methyl)pyridin-3-yl)-1H-indazol-3-yl)-3H-imidazo[4,5-b]pyridin-7-yl)-5-fluorophenyl)-N^2,N^2-dimethylethane-1,2-diamine] were, in that order, 203 nM and 0.701 nM.
With `CC(C)C(=O)Nc1cncc(-c2ccc3[nH]nc(-c4nc5c(-c6ccccc6F)ccnc5[nH]4)c3c2)c1` [Compound 61, N-(5-(3-(7-(2-Fluorophenyl)-3H-imidazo[4,5-b]pyridin-2-yl)-1H-indazol-5-yl)pyridin-3-yl)isobutyramide], the IC50 in test [1] was 6 nM. The same molecule gave an EC50 in test [2] of 0.009 nM.
`O=C(Nc1cncc(-c2ccc3[nH]nc(-c4nc5c(-c6cccs6)ccnc5[nH]4)c3c2)c1)C1CCCC1` [Compound 333, N-(5-(3-(7-(Thiophen-2-yl)-3H-imidazo[4,5-b]pyridin-2-yl)-1H-indazol-5-yl)pyridin-3-yl)cyclopentanecarboxamide] registered an IC50 in test [1] of 6.3 nM. In test [2], this molecule showed an EC50 of 0.009 nM.
The like results for `CCNCc1cncc(-c2ccc3[nH]nc(-c4nc5c(-c6ccoc6)ccnc5[nH]4)c3c2)c1` [Compound 292, N-((5-(3-(7-(Furan-3-yl)-3H-imidazo[4,5-b]pyridin-2-yl)-1H-indazol-5-yl)pyridin-3-yl)methyl)ethanamine] were, in that order, 47.7 nM and 0.009 nM.
In test [1], `CC(C)C(=O)Nc1cncc(-c2ccc3[nH]nc(-c4nc5c(-c6ccoc6)ccnc5[nH]4)c3c2)c1` [Compound 295, N-(5-(3-(7-(Furan-3-yl)-3H-imidazo[4,5-b]pyridin-2-yl)-1H-indazol-5-yl)pyridin-3-yl)isobutyramide] returned an IC50 of 5.1 nM. The EC50 in test [2] came out at 0.405 nM.
`Fc1cccc(-c2ccnc3[nH]c(-c4n[nH]c5ccc(-c6ccncc6)cc45)nc23)c1` [Compound 1888, 7-(3-Fluorophenyl)-2-(5-(pyridin-4-yl)-1H-indazol-3-yl)-3H-imidazo[4,5-b]pyridine] yielded an IC50 in test [1] greater than 10000 nM. In addition, the EC50 in test [2] stood at 9.99 nM.
Consider `CCC(=O)Nc1cncc(-c2ccc3[nH]nc(-c4nc5c(-c6cccc(F)c6)ccnc5[nH]4)c3c2)c1` [Compound 1, N-(5-(3-(7-(3-Fluorophenyl)-3H-imidazo[4,5-b]pyridin-2-yl)-1H-indazol-5-yl)pyridin-3-yl)propionamide], for which the IC50 in test [1] is less than 1 nM. The EC50 in test [2] amounted to 0.015 nM.
`Fc1cccc(-c2ccnc3[nH]c(-c4n[nH]c5ccc(-c6ccccn6)cc45)nc23)c1` [Compound 1889, 7-(3-Fluorophenyl)-2-(5-(pyridin-2-yl)-1H-indazol-3-yl)-3H-imidazo[4,5-b]pyridine] registered an IC50 in test [1] greater than 1000 nM. Also, a half-maximal effect in test [2] (EC50) was put at 0.018 nM.
Regarding `O=C(Nc1cncc(-c2ccc3[nH]nc(-c4nc5c(-c6cccs6)ccnc5[nH]4)c3c2)c1)C1CC1` [Compound 331, N-(5-(3-(7-(Thiophen-2-yl)-3H-imidazo[4,5-b]pyridin-2-yl)-1H-indazol-5-yl)pyridin-3-yl)cyclopropanecarboxamide], in test [1], the IC50 was found to be 34.7 nM. In test [2], this molecule registered an EC50 of 0.155 nM.
In test [1], `CN1CCN(c2ccnc3[nH]c(-c4n[nH]c5ccc(-c6cncnc6)cc45)nc23)CC1` [Compound 234, 7-(4-Methylpiperazin-1-yl)-2-(5-(pyrimidin-5-yl)-1H-indazol-3-yl)-3H-imidazo[4,5-b]pyridine] yielded an IC50 of 795 nM. Moreover, in test [2], the EC50 came out at 0.434 nM.
For the molecule `Cc1ccncc1-c1ccc2[nH]nc(-c3nc4c(-c5cc(F)cc(CNS(C)(=O)=O)c5)ccnc4[nH]3)c2c1` [Compound 421, N-(3-fluoro-5-(2-(5-(4-Methylpyridin-3-yl)-1H-indazol-3-yl)-3H-imidazo[4,5-b]pyridin-7-yl)benzyl)methanesulfonamide], in test [1], the IC50 was found to be 6.1 nM. Besides, the EC50 in test [2] stood at 0.045 nM.
Regarding `CC(C)C(=O)Nc1cncc(-c2ccc3[nH]nc(-c4nc5c(N6CCN(C)CC6)ccnc5[nH]4)c3c2)c1` [Compound 217, N-(5-(3-(7-(4-Methylpiperazin-1-yl)-3H-imidazo[4,5-b]pyridin-2-yl)-1H-indazol-5-yl)pyridin-3-yl)isobutyramide], half-maximal inhibition in test [1] (IC50) was put at 173 nM. Moreover, in test [2], it took 2.83 nM to reach a half-maximal effect (EC50).
Take `Cn1cc(-c2ccc3[nH]nc(-c4nc5c(-c6cccc(F)c6)ccnc5[nH]4)c3c2)cn1` [Compound 1876, 7-(3-Fluorophenyl)-2-(5-(1-methyl-1H-pyrazol-4-yl)-1H-indazol-3-yl)-3H-imidazo[4,5-b]pyridine]: the IC50 in test [1] was found to be 61 nM. Further, the EC50 in test [2] is 9.99 nM.
The like results for `CC(C)C(=O)Nc1cncc(-c2ccc3[nH]nc(-c4nc5c(-c6ccsc6)ccnc5[nH]4)c3c2)c1` [Compound 269, N-(5-(3-(7-(Thiophen-3-yl)-3H-imidazo[4,5-b]pyridin-2-yl)-1H-indazol-5-yl)pyridin-3-yl)isobutyramide] were, in that order, 5.1 nM and 9.99 nM.
